Test results as given in patent US20240254138A1, “TRICYCLIC PYRIMIDINES AS CYCLIN-DEPENDENT KINASE 7 (CDK7) INHIBITORS” (JANSSEN PHARMACEUTICA NV, priority 2021, published 2024).
Where two headings read alike, the source gives them in different places.

Columns and labels:
[1] = tested on: RNA Polymerase II Serine 5 phosphorylation (Rpb1 CTD, downstream substrate of CDK7) in A549 cells; experiment: Imaging-based cellular RNA PolII Ser5 phosphorylation assay in A549 cells; assay type: cell-based, human; settings: wild-type CDK7, RNA PolII Ser5 phosphorylation, averaged over all measurements; for IC50: Homo sapiens, A549, A549 cells, read-out: CDK7_A549 Wild-type CDK7 (pIC50) (converted); for CDK7_A549 Wild-type CDK7 (pIC50): A549 cells
Procedure, shortened: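 IC50 derived by fitting % control (DMSO high, 10 μM reference low) against concentration, with Hill slope. Readout: high-content imaging of phospho-Ser5 Rpb1 CTD antibody staining in fixed, permeabilized A549 cells exposed to compound 3 h after 20 h culture in 1% FBS DMEM.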

[2] = tested on: RNA Polymerase II Serine 5 phosphorylation in A549 cells overexpressing CDK7-mutant (C312S); experiment: Imaging-based cellular RNA PolII Ser5 phosphorylation assay in A549 cells overexpressing CDK7-mutant (C312S); assay type: cell-based, human; settings: RNA PolII Ser5 phosphorylation, averaged over all measurements; for IC50: Homo sapiens, A549, A549 cells overexpressing CDK7-mutant (C312S), read-out: CDK7_A549 mutant hCDK7(pIC50) (converted); for CDK7_A549 mutant hCDK7(pIC50): A549 cells overexpressing CDK7-mutant (C312S)
Procedure, shortened: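 Readout was automated imaging of anti-phospho-Ser5 Rpb1 CTD immunofluorescence, with IC50 fitted to % control versus concentration. Cells were A549 stably overexpressing non-covalently targetable CDK7 C312S alongside wild-type, exposed to compound 3 h at 37 °C. DMSO and 10 μM reference compound served as controls.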

[3] = molecular target: CDK7/cyclinH/MAT1 trimeric complex (Homo sapiens, UniProt P50613); experiment: In vitro CDK7 assay, potency of irreversible covalent inhibitors (kinact/KI), coupled PK/LDH ADP readout at 340 nm; settings: for Ki: CDK7 (20 nM enz.) (KI, μM); for kinact: read-out: CDK7 (20 nM enz.) (kinact, s^−1), 20 nM enzyme
CDK7/cyclinH/MAT1 trimeric complex, sequence (P50613 whole entry): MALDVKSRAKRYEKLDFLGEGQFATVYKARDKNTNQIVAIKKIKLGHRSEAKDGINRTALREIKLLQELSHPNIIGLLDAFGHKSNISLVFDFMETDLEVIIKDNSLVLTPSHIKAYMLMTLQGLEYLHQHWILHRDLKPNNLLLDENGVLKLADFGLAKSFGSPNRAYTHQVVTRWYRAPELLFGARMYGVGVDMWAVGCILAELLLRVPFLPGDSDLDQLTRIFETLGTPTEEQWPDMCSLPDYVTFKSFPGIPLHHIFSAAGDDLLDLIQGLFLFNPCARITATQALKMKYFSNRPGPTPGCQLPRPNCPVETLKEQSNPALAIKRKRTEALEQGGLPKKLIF
CDK7/cyclinH/MAT1 trimeric complex, sequence (P51946 whole entry partner): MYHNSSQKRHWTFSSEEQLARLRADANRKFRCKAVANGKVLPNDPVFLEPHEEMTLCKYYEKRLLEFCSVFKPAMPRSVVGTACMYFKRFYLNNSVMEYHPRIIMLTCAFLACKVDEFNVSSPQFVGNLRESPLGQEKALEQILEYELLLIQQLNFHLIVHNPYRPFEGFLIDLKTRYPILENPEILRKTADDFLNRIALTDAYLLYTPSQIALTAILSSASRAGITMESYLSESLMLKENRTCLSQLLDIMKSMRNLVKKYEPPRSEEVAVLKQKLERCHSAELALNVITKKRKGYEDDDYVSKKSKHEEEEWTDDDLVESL
CDK7/cyclinH/MAT1 trimeric complex, sequence (P51948 whole entry partner): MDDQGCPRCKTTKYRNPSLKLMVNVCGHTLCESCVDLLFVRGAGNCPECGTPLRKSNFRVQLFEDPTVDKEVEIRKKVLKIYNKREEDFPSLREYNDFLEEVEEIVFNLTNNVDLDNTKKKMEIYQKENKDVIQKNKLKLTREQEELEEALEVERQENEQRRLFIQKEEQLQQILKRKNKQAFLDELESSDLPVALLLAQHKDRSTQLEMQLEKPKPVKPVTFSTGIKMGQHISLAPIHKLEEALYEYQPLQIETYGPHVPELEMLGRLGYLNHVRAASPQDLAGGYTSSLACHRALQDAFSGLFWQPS

[4] = read-out: CDK7 (20 nM enz.) (kinact/KI, M^−1*s^−1), 20 nM enzyme
[5] = read-out: CDK7 (20 nM enz.) (kobs/[I], M^−1*s^−1), 20 nM enzyme

SMILES	IC50 [1]	IC50 [2]	CDK7 (20 nM enz.) (kinact, s^−1) ([3]; 20 nM enzyme)	CDK7 (20 nM enz.) (kinact/KI, M^−1*s^−1) ([3]; 20 nM enzyme)	Ki ([3]; 20 nM enzyme)	CDK7_A549 Wild-type CDK7 (pIC50) [1]	CDK7_A549 mutant hCDK7(pIC50) [2]	kinact [3]	kinact/KI [3, 4]	kinact/KI [3, 5]	CDK7 (20 nM enz.) (kobs/[I], M^−1*s^−1) ([3]; 20 nM enzyme)
C=CC(=O)N1CCC(N2CC(c3cc(C)c4c(c3)Nc3nccc(-c5cnn(C)c5)c3CO4)C2)CC1 [Compound 338]	–	–	–	299.026 M⁻¹ s⁻¹	–	7.25	5.52	4.86e-05 s⁻¹	–	–	–
CC#CC(=O)N1CCC(N2CC(c3cc4c(c(C5CC5)n3)OCc3c(N5CCOCC5)ccnc3N4)C2)CC1 [Compound 340]	–	–	2.465e-05 s⁻¹	507.473 M⁻¹ s⁻¹	0.0486 µM	7.37	5.43	–	–	–	–
C=CC(=O)N1CC(N2CCC(c3cc(C#N)c4c(c3)Nc3nccc(N5CCOCC5)c3C(C)O4)CC2)C1 (stereo not drawn) [Compound 342]	–	–	–	–	–	7.85	5.18	–	–	633 M⁻¹ s⁻¹	–
CC#CC(=O)N1CCC(N2CC(c3cc4c(c(CCC)n3)OCc3c(N5CCOCC5)ccnc3N4)C2)CC1 [Compound 347]	47.9 nM	5.13 µM	–	–	0.036 µM	–	–	2.84e-05 s⁻¹	791 M⁻¹ s⁻¹	–	–
C=C(C(=O)N1CCC(N2CC(c3cc4c(c(C)n3)OCc3c(-c5cnn(C)c5)ccnc3N4)C2)CC1)n1cccn1 [Compound 349]	97.7 nM	8.32 µM	–	–	0.0563 µM	–	–	3.25e-05 s⁻¹	578 M⁻¹ s⁻¹	–	–
C=CC(=O)N1CC(N2CCC(c3cc(C#N)c4c(c3)Nc3nccc(N5CCOCC5)c3C(C)O4)CC2)C1 (stereo not drawn) [Compound 352]	–	–	–	–	0.055 µM	7.52	5.51	5.53e-05 s⁻¹	1010 M⁻¹ s⁻¹	–	–
C=CC(=O)N1CCC(N2CC(c3cc4c(c(C(F)(F)F)n3)OCc3c(N5CCOCC5)ccnc3N4)C2)CC1 [Compound 359]	102 nM	2.82 µM	–	994.882 M⁻¹ s⁻¹	0.028 µM	–	–	2.79e-05 s⁻¹	–	–	–
CC#CC(=O)N1CCC(N2CC(c3cc4c(c(-c5ncc[nH]5)n3)OCc3c(N5CCOCC5)ccnc3N4)C2)CC1 [Compound 364]	162 nM	> 10 µM	–	–	–	–	–	–	–	464 M⁻¹ s⁻¹	–
C=CC(=O)N1CCC(N2CC(c3cc4c(c(-c5ncc[nH]5)n3)OCc3c(N5CCOCC5)ccnc3N4)C2)CC1 [Compound 366]	209 nM	10.7 µM	–	–	–	–	–	–	–	339 M⁻¹ s⁻¹	–
C=CC(=O)N1CC(N2CCC(c3cc4c(c(C)n3)OCc3c(N5CCOCC5)ccnc3N4)N(C)CC2)C1 (stereo not drawn) [Compound 367]	75.9 nM	10.5 µM	–	–	0.0482 µM	–	–	3.37e-05 s⁻¹	698 M⁻¹ s⁻¹	–	–
CC#CC(=O)N1CC(N2CC(c3cc4c(c(CCC)n3)OCc3c(N5CCOCC5)ccnc3N4)C2)C1 [Compound 368]	191 nM	> 10 µM	–	–	0.103 µM	–	–	4.43e-05 s⁻¹	429 M⁻¹ s⁻¹	–	–
CC#CC(=O)N1CC(N2CCC(c3cc4c(c(C)n3)OCc3c(N5CCOCC5)ccnc3N4)N(C)CC2)C1 (stereo not drawn) [Compound 373]	269 nM	> 10 µM	–	–	0.113 µM	–	–	1.66e-05 s⁻¹	147 M⁻¹ s⁻¹	–	–

Next, values leading:

IC50 [1]	IC50 [2]	CDK7 (20 nM enz.) (kinact, s^−1) ([3]; 20 nM enzyme)	CDK7 (20 nM enz.) (kinact/KI, M^−1*s^−1) ([3]; 20 nM enzyme)	Ki ([3]; 20 nM enzyme)	CDK7_A549 Wild-type CDK7 (pIC50) [1]	CDK7_A549 mutant hCDK7(pIC50) [2]	kinact [3]	kinact/KI [3, 4]	kinact/KI [3, 5]	CDK7 (20 nM enz.) (kobs/[I], M^−1*s^−1) ([3]; 20 nM enzyme)	SMILES
49 nM	1.32 µM	1.295e-05 s⁻¹	229.663 M⁻¹ s⁻¹	0.0564 µM	–	–	–	–	–	–	C=CC(=O)N1CCC(N2CC(c3cc4c(c(C5CC5)n3)OCc3c(N5CCOCC5)ccnc3N4)C2)CC1 [Compound 336]
145 nM	> 10 µM	–	–	0.0746 µM	–	–	7.81e-05 s⁻¹	1050 M⁻¹ s⁻¹	–	–	C=CC(=O)N1CC(N2CC(c3cc4c(c(C#N)n3)OCc3c(C5CCOCC5)ccnc3N4)C2)C1 [Compound 339]
–	–	2.9e-05 s⁻¹	655.075 M⁻¹ s⁻¹	0.0443 µM	7.35	5.64	–	–	–	–	C=CC(=O)N1CCC(N2CC(c3cc4c(c(C5CC5)n3)OCc3c(N5CCOCC5)ccnc3N4)C2)CC1 [Compound 341]
47.9 nM	3.09 µM	–	–	0.0543 µM	–	–	5.99e-05 s⁻¹	1100 M⁻¹ s⁻¹	–	–	C=CC(=O)N1CCC(N2CC(c3cc4c(c(CCC)n3)OCc3c(N5CCOCC5)ccnc3N4)C2)CC1 [Compound 348]
81.3 nM	10 µM	–	–	0.025 µM	–	–	4.4e-05 s⁻¹	1760 M⁻¹ s⁻¹	–	–	C=CC(=O)N1CC(N2CC(c3cc4c(c(CCC)n3)OCc3c(N5CCOCC5)ccnc3N4)C2)C1 [Compound 350]
–	–	–	–	–	7.24	5.11	–	–	–	2368.08 M⁻¹ s⁻¹	C=CC(=O)N1CC(N2CC(c3cc4c(c(C(F)(F)F)n3)OCc3c(N5CCOCC5)ccnc3N4)C2)C1 [Compound 357]
